SMILES strings stand for the structures.

The target of this test is T1, HCMV polymerase (Human cytomegalovirus, UniProt P08546).
T1 construct: made in house; host or cells: recombinant baculovirus-infected SF-9 insect cells
T1 sequence (P08546 whole entry): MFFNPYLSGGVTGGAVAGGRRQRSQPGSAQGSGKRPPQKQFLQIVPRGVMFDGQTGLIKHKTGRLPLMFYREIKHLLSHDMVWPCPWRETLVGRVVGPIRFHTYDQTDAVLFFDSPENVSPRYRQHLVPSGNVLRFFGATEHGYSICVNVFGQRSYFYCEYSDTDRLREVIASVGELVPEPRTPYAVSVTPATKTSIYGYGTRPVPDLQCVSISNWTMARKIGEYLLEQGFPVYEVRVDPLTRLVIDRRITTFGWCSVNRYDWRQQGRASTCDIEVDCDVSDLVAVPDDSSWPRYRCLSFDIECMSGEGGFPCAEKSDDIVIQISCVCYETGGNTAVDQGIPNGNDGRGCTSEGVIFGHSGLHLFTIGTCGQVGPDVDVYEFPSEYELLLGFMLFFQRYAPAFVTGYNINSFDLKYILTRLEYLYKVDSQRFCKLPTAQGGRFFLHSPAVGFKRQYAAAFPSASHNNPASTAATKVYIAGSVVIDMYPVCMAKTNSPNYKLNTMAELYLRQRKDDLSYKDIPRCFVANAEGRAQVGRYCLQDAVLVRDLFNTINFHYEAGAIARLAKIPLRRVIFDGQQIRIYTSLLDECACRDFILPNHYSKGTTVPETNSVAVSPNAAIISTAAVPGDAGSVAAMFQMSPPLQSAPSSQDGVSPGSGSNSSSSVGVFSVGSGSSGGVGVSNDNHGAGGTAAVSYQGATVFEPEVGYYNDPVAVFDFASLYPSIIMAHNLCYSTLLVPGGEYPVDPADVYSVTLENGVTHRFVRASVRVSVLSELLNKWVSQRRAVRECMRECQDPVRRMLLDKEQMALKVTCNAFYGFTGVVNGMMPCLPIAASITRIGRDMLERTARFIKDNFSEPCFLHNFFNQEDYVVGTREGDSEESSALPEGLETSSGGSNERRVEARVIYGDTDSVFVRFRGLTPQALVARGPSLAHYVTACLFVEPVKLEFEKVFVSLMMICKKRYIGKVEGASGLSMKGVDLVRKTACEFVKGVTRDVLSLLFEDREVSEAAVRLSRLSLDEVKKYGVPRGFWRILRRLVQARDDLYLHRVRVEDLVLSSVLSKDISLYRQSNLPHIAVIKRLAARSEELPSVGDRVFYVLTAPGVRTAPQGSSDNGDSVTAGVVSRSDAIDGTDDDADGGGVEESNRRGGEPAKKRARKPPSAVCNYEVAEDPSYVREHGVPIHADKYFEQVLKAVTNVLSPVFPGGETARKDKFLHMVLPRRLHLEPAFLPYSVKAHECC
Nature of the test: biochemical. Particulars: HCMV polymerase; SPA; modified assay: compounds in 100% DMSO, 4.5 mM DTT. Here is the method: The HCMV polymerase assay is performed using a scintillation proximity assay (SPA) as described in several references, such as N. D. Cook, et al., Pharmaceutical Manufacturing International, pages 49-53 (1992); K. Takeuchi, Laboratory Practice, September issue (1992); U.S. Pat. No. 4,568,649 (1986); which are incorporated by reference herein. Reactions are performed in 96-well plates. The assay is conducted in 100 μl volume with 5.4 mM HEPES (pH 7.5), 11.7 mM KCl, 4.5 mM MgCl2, 0.36 mg/ml BSA, and 90 nM ^3 H-dTTP. Assays are run with and without CHAPS, (3-[(3-Cholamidopropyl)dimethylammonio]-1-propane-sulfonate) at a final concentration of 2 mM. HCMV polymerase is diluted in enzyme dilution buffer containing 50% glycerol, 250 mM NaCl, 10 mM HEPES (pH 7.5), 100 μg/ml BSA, and 0.01% sodium azide. The HCMV polymerase, which is expressed in recombinant baculovirus-infected SF-9 cells and purified according to literature procedures, is added at 10% (or 10 μl) of the final reaction volume, i.e., 100 μl. Compounds are diluted in 50% DMSO and 10 μl are added to each well. Control wells contain an equivalent concentration of DMSO. Unless noted otherwise, reactions are initiated via the addition of 6 nM biotinylated poly(dA)-oligo(dT) template/primer to reaction mixtures containing the enzyme, substrate, and compounds of interest. Plates are incubated in a 25 C. or 37 C. H2 O bath and terminated via the addition of 40 μl/reaction of 0.5 M EDTA (pH 8) per well. Reactions are terminated within the time-frame during which substrate incorporation is linear and varied depending upon the enzyme and conditions used, i.e., 30 min. for HCMV polymerase. Ten μl of streptavidin-SPA beads (20 mg/ml in PBS/10% glycerol) are added following termination of the reaction. Plates are incubated 10 min. at 37 C., then equilibrated to room temperature, and counted on a Packard Topcount. Linear regressions are performed and IC50 's are calculated using computer software.
A modified version of the above HCMV polymerase assay is performed as described above, but with the following changes: Compounds are diluted in 100% DMSO until final dilution into assay buffer. In the previous assay, compounds are diluted in 50% DMSO. 4.5 mM dithiotherotol (DTT) is added to the polymerase buffer.
Compound `C[S+]([O-])Cn1cc(C(=O)NCc2ccc(Cl)cc2)c(=O)c2cc(CN3CCOCC3)ccc21` (stereo not drawn) [Example 79, N-(4-Chlorobenzyl)-1-[(methylsulfinyl)methyl]-6-(4-morpholinylmethyl)-4-oxo-1,4-dihydro-3-quinolinecarboxamide] registered an IC50 of 1100 nM.
Turning to `CS(=O)(=O)Cn1cc(C(=O)NCc2ccc(Cl)cc2)c(=O)c2cc(CN3CCOCC3)ccc21` [Example 80, N-(4-Chlorobenzyl)-1-[(methylsulfonyl)methyl]-6-(4-morpholinylmethyl)-4-oxo-1,4-dihydro-3-quinolinecarboxamide], the half-maximal inhibitory concentration (IC50) was determined as 1100 nM.
As for `O=C(NCc1ccc(Cl)cc1)c1cn(C[S+]([O-])c2ccccc2)c2ccc(CN3CCOCC3)cc2c1=O` (stereo not drawn) [Example 81, N-(4-Chlorobenzyl)-6-(4-morpholinylmethyl)-4-oxo-1-[(phenylsulfinyl)methyl]-1,4-dihydro-3-quinolinecarboxamide], the figure is 350 nM.
For `O=C(NCc1ccc(Cl)cc1)c1cn(CS(=O)(=O)c2ccccc2)c2ccc(CN3CCOCC3)cc2c1=O` [Example 82, N-(4-Chlorobenzyl)-6-(4-morpholinylmethyl)-4-oxo-1-[(phenylsulfonyl)methyl]-1,4-dihydro-3-quinolinecarboxamide] the value was 530 nM; for `COCCOCCn1cc(C(=O)NCc2ccc(Cl)cc2)c(=O)c2cc(CCCO)ccc21` [Example 83, N-(4-chlorobenzyl)-6-(3-hydroxypropyl)-1-[2-(2-methoxyethoxy)ethyl]-4-oxo-1,4-dihydro-3-quinolinecarboxamide], 600 nM; for `COCCOCCn1cc(C(=O)NCc2ccc(Cl)cc2)c(=O)c2cc(CN3CCOCC3)ccc21` [Example 84], 1200 nM.
In turn, `COCCOCCn1cc(C(=O)NCc2ccc(Cl)cc2)c(=O)c2cc(CN3CCC(=O)CC3)ccc21` [Example 85, N-(4-Chlorobenzyl)-1-[2-(2-methoxyethoxy)ethyl]-4-oxo-6-[(4-oxo-1-piperidinyl)methyl]-1,4-dihydro-3-quinolinecarboxamide] showed an IC50 of 6000 nM. This IC50 lies about 5-fold higher than the previous one.
For `COCCOCCn1cc(C(=O)NCc2ccc(Cl)cc2)c(=O)c2cc(CN(C)CC#N)ccc21` [Example 86, N-(4-Chlorobenzyl)-6-{[(cyanomethyl)(methyl)amino]methyl}-1-[2-(2-methoxyethoxy)ethyl]-4-oxo-1,4-dihydro-3-quinolinecarboxamide] the value was 2500 nM; for `COCCOCCn1cc(C(=O)NCc2ccc(Cl)cc2)c(=O)c2cc(CN3CC[C@@H](O)C3)ccc21` [Example 87, N-(4-Chlorobenzyl)-6-{[(3R)-3-hydroxypyrrolidinyl]methyl}-1-[2-(2-methoxyethoxy)ethyl]-4-oxo-1,4-dihydro-3-quinolinecarboxamide], 4000 nM; for `COCCOCCn1cc(C(=O)NCc2ccc(Cl)cc2)c(=O)c2cc(CN(C)[C@H](C)[C@@H](O)c3ccccc3)ccc21` [Example 88, N-(4-Chlorobenzyl)-6-{[[(1R,2S)-2-hydroxy-1-methyl-2-phenylethyl](methyl)amino]methyl}-1-[2-(2-methoxyethoxy)ethyl]-4-oxo-1,4-dihydro-3-quinolinecarboxamide], 5900 nM.
As for `COCCOCCn1cc(C(=O)NCc2ccc(Cl)cc2)c(=O)c2cc(CN(C)CC(O)c3ccccc3)ccc21` (stereo not drawn) [Example 89, N-(4-Chlorobenzyl)-6-{[(2-hydroxy-2-phenylethyl)(methyl)amino]methyl}-1-[2-(2-methoxyethoxy)ethyl]-4-oxo-1,4-dihydro-3-quinoline-carboxamide], the figure is 6700 nM; as for `COCCOCCn1cc(C(=O)NCc2ccc(Cl)cc2)c(=O)c2cc(CN(C)CC(O)c3ccc(O)cc3)ccc21` (stereo not drawn) [Example 90, N-(4-Chlorobenzyl)-6-{[[2-hydroxy-2-(4-hydroxyphenyl)ethyl](methyl)amino]methyl}-1-[2-(2-methoxyethoxy)ethyl]-4-oxo-1,4-dihydro-3-quinolinecarboxamide], 4400 nM.
For `CC(C)(C)OCCOCCn1cc(C(=O)NCc2ccc(Cl)cc2)c(=O)c2cc(CN3CCOCC3)ccc21` [Example 91, 1-{2-[2-(tert-Butoxy)ethoxy]ethyl}-N-(4-chlorobenzyl)-6-(4-morpholinylmethyl)-4-oxo-1,4-dihydro-3-quinolinecarboxamide] the value was 2100 nM; for `COCCOCCn1cc(C(=O)NCc2ccc(Cl)cc2)c(=O)c2cc(CSC)ccc21` [Example 93, N-(4-Chlorobenzyl)-1-[2-(2-methoxyethoxy)ethyl]-6-[(methylsulfanyl)methyl]-4-oxo-1,4-dihydro-3-quinolinecarboxamide], 6200 nM; for `Cn1cc(C(=S)NCc2ccc(Cl)cc2)c(=O)c2cc(C#CCO)ccc21` [Example 94, N-(4-chlorobenzyl)-6-(3-hydroxy-1-propynyl)-1-methyl4-oxo-1,4-dihydro-3-quinolinecarbothioamide], 770 nM.
Regarding `Cn1cc(C(=S)NCc2ccc(Cl)cc2)c(=O)c2cc(CN3CCOCC3)ccc21` [Example 95, N-(4-Chlorobenzyl)-1-methyl-6-(4-morpholinylmethyl)-4-oxo-1,4-dihydro-3-quinolinecarbothioamide], the IC50 is 300 nM.
With `Cn1cc(C(=O)NCc2ccc(Cl)cc2)c(=O)c2cccc(C#CCO)c21` [Example 96, N-(4-Chlorobenzyl)-8-(3-hydroxy-1-propynyl)-1-methyl-4-oxo-1,4-dihydro-3-quinolinecarboxamide], the IC50 was 1000 nM. Compared with the last compound, the IC50 is about 3.3-fold higher.
Turning to `Cn1cc(C(=O)NCc2ccc(Cl)cc2)c(=O)c2cccc(C#CCCO)c21` [Example 97, N-(4-Chlorobenzyl)-8-(4-hydroxy-1-butynyl)-1-methyl-4-oxo-1,4-dihydro-3-quinolinecarboxamide], the IC50 was 1500 nM.
Consider `Cn1cc(C(=O)NCc2ccc(Cl)cc2)c(=O)c2cc(CC3CCOCC3)ccc21` [Example 98, N-(4-Chlorobenzyl)-1-methyl-4-oxo-6-(tetrahydro-2H-pyran-4-ylmethyl)-1,4-dihydro-3-quinolinecarboxamide], for which the midpoint of inhibition, the IC50, lay at 310 nM.
On to `Cn1cc(C(=O)NCc2ccc(Cl)cc2)c(=O)c2cc(CN3CC(=NO)C3)ccc21` [Example 99, N-(4-Chlorobenzyl)-6-{[3-(ydroxyimino)-1-azetidinyl]methyl}-1-methyl-4-oxo-1,4-dihydro-3-quinolinecarboxamide], for which the half-inhibitory concentration (IC50) amounted to 8000 nM.
Turning to `O=C(NCc1ccc(Cl)cc1)c1cn(CCOCCN2CCOCC2)c2ccc(CN3CCOCC3)cc2c1=O` [Example 100], the IC50 was 2900 nM.
For `O=C(NCc1ccc(Cl)cc1)c1cn(CSc2ccc(Cl)cc2)c2ccc(CN3CCOCC3)cc2c1=O` [Example 101, N-(4-Chlorobenzyl)-1-([(4-chlorophenyl)sulfanyl]methyl)-6-(4-morpholinylmethyl)-4-oxo-1,4-dihydro-3-quinolinecarboxamide] the value was 300 nM; for `O=C(NCc1ccc(Cl)cc1)c1cn(C[S+]([O-])c2ccc(Cl)cc2)c2ccc(CN3CCOCC3)cc2c1=O` (stereo not drawn) [Example 102], 590 nM.
As for `O=C(NCc1ccc(Cl)cc1)c1cn(CS(=O)(=O)c2ccc(Cl)cc2)c2ccc(CN3CCOCC3)cc2c1=O` [Example 103, N-(4-Chlorobenzyl)-1-([(4-chlorophenyl)sulfonyl]methyl)-6-(4-morpholinylmethyl)-4-oxo-1,4-dihydro-3-quinolinecarboxamide], the figure is 830 nM.

The values above are taken from patent US6248739A, “Quinolinecarboxamides as antiviral agents” (Pharmacia & Upjohn Company, priority 1999, dated 2001).
